Source: patent US20220002279A1, “NOVEL IMIDAZOLE DERIVATIVE” (priority 2018, published 2022)
≈ marks a conversion by molar mass, not a printed value. Like-named read-outs stand apart in the source and are kept apart here.

Experiments:
[1] = target: T1, Escherichia coli LpxC enzyme (Escherichia coli, UniProt P0A725); experiment: Inhibitory activity on Escherichia coli LpxC enzyme (fluorescamine method); assay type: biochemical
T1 construct: made in house; host or cells: Escherichia coli
T1 sequence (P0A725 1-305): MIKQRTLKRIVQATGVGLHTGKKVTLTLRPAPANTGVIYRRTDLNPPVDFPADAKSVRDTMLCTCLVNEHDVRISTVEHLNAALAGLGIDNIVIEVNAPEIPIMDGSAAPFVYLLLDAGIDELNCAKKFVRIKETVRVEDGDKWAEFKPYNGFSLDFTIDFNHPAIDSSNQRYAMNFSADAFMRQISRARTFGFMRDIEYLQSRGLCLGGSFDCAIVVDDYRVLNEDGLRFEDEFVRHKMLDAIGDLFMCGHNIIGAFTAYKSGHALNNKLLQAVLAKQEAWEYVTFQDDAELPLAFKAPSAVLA
Protocol: To assay the activity of Escherichia coli LpxC enzyme, LpxC was reacted with its substrate, UDP-3-O-(R-3-hydroxymyristoyl)-N-acetylglucosamine, and the amount of the reaction product was quantified by the amino groups present in the product
The reaction was terminated by the addition of 1.0 mg/mL-fluorescamine dissolved in a solvent obtained by mixing an equal amount of acetonitrile and dimethylformamide with the reaction mixture, and then, a 0.2 mol/L-sodium phosphate buffer solution (pH 8.0) was added thereto, and the amount of the reaction product was detected at an excitation wavelength/fluorescence wavelength=390 nm/495 nm. An inhibition curve was obtained by performing the aforementioned reaction in the presence of various concentrations of test compounds.

[2] = system: Escherichia coli strain ATCC25922; experiment: Antimicrobial activity, MIC by broth microdilution; assay type: cell-based; conditions: ATCC25922, 18 h, read-out: MIC Escherichia coli ATCC25922
In short: (§1)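 CLSI-based broth microdilution in cation-adjusted Mueller-Hinton broth, inoculum about 5×10^5 CFU/mL from overnight heart infusion agar culture. Incubation 35° C. about 18 h; MIC is the lowest concentration with no visible growth.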

[3] = system: Klebsiella pneumoniae strain ATCC13883; experiment: Antimicrobial activity, MIC by broth microdilution; assay type: cell-based; conditions: read-out: MIC Klebsiella pneumoniae ATCC13883
In short: as §1

[4] = system: Pseudomonas aeruginosa strain ATCC27853; experiment: Antimicrobial activity, MIC by broth microdilution; assay type: cell-based; conditions: ATCC27853, 18 h, read-out: MIC Pseudomonas aeruginosa ATCC27853
In short: as §1

[5] = fluorescamine detection, 3.1 nmol/L enzyme, 20 μmol/L substrate, pH 6.5, 120 min, read-out: IC50 (inhibitory activity on Escherichia coli LpxC enzyme, Fluoresamine method)
[6] = cation-adjusted Mueller-Hinton broth, about 5×10^5 CFU/mL, 35° C., about 18 hours
[7] = ATCC13883, cation-adjusted Mueller-Hinton broth, about 5×10^5 CFU/mL, 35° C., about 18 hours

Compound	IC50 [1, 5] [nM]	MIC [2, 6] [µg/mL]	MIC [3, 7] [µg/mL]	MIC [4, 6] [µg/mL]	IC50 [1] [nM]	MIC [2] [µg/mL]	MIC ([3]; ATCC13883, 18 h) [µg/mL]	MIC [4] [µg/mL]
COCC(O)CN1C[C@@H]2[C@@H](C#Cc3ccc(-c4cc(Cn5ccnc5[C@H](C)O)no4)cc3)[C@@H]2C1 (stereo partly drawn) [Compound 57, 1-[(1R,5S,6s)-6-({4-[3-((2-[(1S)-1-hydroxyethyl]-1H-imidazol-1-yl}methyl)-1,2-oxazol-5-yl]phenyl}ethynyl)-3-azabicyclo[3.1.0]hexan-3-yl]-3-methoxypropan-2-ol]	71	0.5 (≈ 1.08 µM)	0.5 (≈ 1.08 µM)	8 (≈ 17.3 µM)	–	–	–	–
C[C@H](O)c1nccn1Cc1cc(-c2ccc(C#C[C@@H]3[C@H]4CN(C5COC5)C[C@@H]34)cc2)on1 [Compound 59, (1S)-1-(1-{[5-(4-{[(1R,5S,6s)-3-(Oxetan-3-yl)-3-azabicyclo[3.1.0]hexan-6-yl]ethynyl}phenyl)-1,2-oxazol-3-yl]methyl}-1H-imidazol-2-yl)ethan-1-ol]	–	0.5 (≈ 1.16 µM)	0.5 (≈ 1.16 µM)	> 16	35.5	–	–	–
CNCCC(=O)N1C[C@@H]2[C@@H](C#Cc3ccc(-c4cc(Cn5ccnc5[C@H](C)O)no4)cc3)[C@@H]2C1 [Compound 63, 1-[(1R,5S,6s)-6-({4-[3-({2-[(1S)-1-hydroxyethyl]-1H-imidazol-1-yl}methyl)-1,2-oxazol-5-yl]phenyl}ethynyl)-3-azabicyclo[3.1.0]hexan-3-yl]-3-(methylamino)propan-1-one]	105	8 (≈ 17.4 µM)	16 (≈ 34.8 µM)	8 (≈ 17.4 µM)	–	–	–	–
COCCC#Cc1ccc(-c2cc(Cn3ccnc3[C@H](C)O)no2)cc1 [Compound 65, (1S)-1-[l-({5-[4-(4-methoxybut-1-yn-1-yl)phenyl]-1,2-oxazol-3-yl)methyl)-1H-imidazol-2-yl]ethan-1-ol]	39.1	0.5 (≈ 1.42 µM)	1 (≈ 2.85 µM)	> 128	–	–	–	–
C[C@H](O)c1nccn1Cc1cc(-c2ccc(C#CC3CN(C(=O)OC(C)(C)C)C3)cc2)on1 [Compound 68, tert-butyl 3-({4-[3-({2-[(1S)-1-hydroxyethyl]-1H-imidazol-1-yl}methyl)-1,2-oxazol-5-yl]phenyl}ethynyl)azetidine-1-carboxylate]	13.6	2 (≈ 4.46 µM)	4 (≈ 8.92 µM)	32 (≈ 71.3 µM)	–	–	–	–
CC(=O)N1CC(C#Cc2ccc(-c3cc(Cn4ccnc4[C@H](C)O)no3)cc2)C1 [Compound 69, 1-[3-({4-[3-({2-[(1S)-1-hydroxyethyl]-1H-imidazol-1-yl}methyl)-1,2-oxazol-5-yl]phenyl}ethynyl)azetidin-1-yl]ethan-1-one]	54.2	4 (≈ 10.2 µM)	8 (≈ 20.5 µM)	64 (≈ 164 µM)	–	–	–	–
C[C@H](O)c1nccn1Cc1cc(-c2ccc(C#C[C@@H]3[C@H]4CN(C(N)=O)C[C@@H]34)cc2)on1 [Compound 71, (1R,5S,6s)-6-({4-[3-({2-[(1S)-1-Hydroxyethyl]-1H-imidazol-1-yl}methyl)-1,2-oxazol-5-yl]phenyl}ethynyl)-3-azabicyclo[3.1.0]hexane-3-carboxamide]	29	1 (≈ 2.4 µM)	2 (≈ 4.79 µM)	> 16	–	–	–	–
C[C@H](O)c1nccn1Cc1cc(-c2ccc(C#C[C@@H]3[C@H]4CN(S(C)(=O)=O)C[C@@H]34)cc2)on1 [Compound 72, (1S)-1-(1-{[5-(4-{[(1R,5S,6s)-3-(Methanesulfonyl)-3-azabicyclo[3.1.0]hexan-6-yl]ethynyl}phenyl)-1,2-oxazol-3-yl]methyl}-1H-imidazol-2-yl)ethan-1-ol]	112	0.5 (≈ 1.1 µM)	1 (≈ 2.21 µM)	> 16	–	–	–	–
C[C@H](O)c1nccn1Cc1cc(-c2ccc(C#C[C@@H]3[C@H]4CN(C=O)C[C@@H]34)cc2)on1 [Compound 73, (1R,5S,6s)-6-({4-[3-({2-[(1S)-1-Hydroxyethyl]-1H-imidazol-1-yl}methyl)-1,2-oxazol-5-yl]phenyl}ethynyl)-3-azabicyclo[3.1.0]hexane-3-carbaldehyde]	38.5	1 (≈ 2.48 µM)	2 (≈ 4.97 µM)	64 (≈ 159 µM)	–	–	–	–
COCC(=O)N1C[C@@H]2[C@@H](C#Cc3ccc(-c4cc(Cn5ccnc5[C@H](C)O)no4)cc3)[C@@H]2C1 [Compound 76, 1-[(1R,5S,6s)-6-({4-[3-({2-[(1S)-1-Hydroxyethyl]-1H-imidazol-1-yl}methyl)-1,2-oxazol-5-yl]phenyl}ethynyl)-3-azabicyclo[3.1.0]hexan-3-yl]-2-methoxyethan-1-one]	38	1 (≈ 2.24 µM)	2 (≈ 4.48 µM)	32 (≈ 71.7 µM)	–	–	–	–
C[C@H](O)C(=O)N1C[C@@H]2[C@@H](C#Cc3ccc(-c4cc(Cn5ccnc5[C@H](C)O)no4)cc3)[C@@H]2C1 [Compound 77, (2S)-2-hydroxy-1-[(1R,5S,6R)-6-({4-[3-({2-[(1S)-1-hydroxyethyl]-1H-imidazol-1-yl}methyl)-1,2-oxazol-5-yl]phenyl}ethynyl)-3-azabicyclo[3.1.0]hexan-3-yl]propan-1-one]	67.4	2 (≈ 4.48 µM)	2 (≈ 4.48 µM)	32 (≈ 71.7 µM)	–	–	–	–
COC(=O)N1C[C@@H]2[C@@H](C#Cc3ccc(-c4cc(Cn5ccnc5[C@H](C)O)no4)cc3)[C@@H]2C1 [Compound 78, Methyl (1R,5S,6s)-6-({4-[3-({2-[(1S)-1-hydroxyethyl]-1H-imidazol-1-yl}methyl)-1,2-oxazol-5-yl]phenyl}ethynyl)-3-azabicyclo[3.1.0]hexane-3-carboxylate]	–	–	–	–	13.8	0.5 (≈ 1.16 µM)	0.5 (≈ 1.16 µM)	32 (≈ 74 µM)
C[C@H](O)c1nccn1Cc1cc(-c2ccc(C#C[C@@H]3[C@H]4CN(C(=O)C(O)CO)C[C@@H]34)cc2)on1 (stereo partly drawn) [Compound 79, 2,3-dihydroxy-1-[(1R,5S,6s)-6-({4-[3-({2-[(1S)-1-hydroxyethyl]-1H-imidazol-1-yl}methyl)-1,2-oxazol-5-yl]phenyl}ethynyl)-3-azabicyclo[3.1.0]hexan-3-yl]propan-1-one]	92.7	2 (≈ 4.32 µM)	4 (≈ 8.65 µM)	32 (≈ 69.2 µM)	–	–	–	–
C[C@H](O)c1nccn1Cc1cc(-c2ccc(C#C[C@@H]3[C@H]4CN(S(N)(=O)=O)C[C@@H]34)cc2)on1.Cl [Compound 81, (1R,5S,6s)-6-((4-[3-({2-[(1S)-1-Hydroxyethyl]-1H-imidazol-1-yl}methyl)-1,2-oxazol-5-yl]phenyl}ethynyl)-3-azabicyclo[3.1.0]hexane-3-sulfonamide hydrochloride]	69.6	0.5	1	> 4	–	–	–	–
C[C@H](O)c1nccn1[C@H](CN)c1cc(-c2ccc(C#CC3CC3)cc2)no1 [Compound 82, (1S)-1-{1-[(1R)-2-Amino-1-{3-[4-(cyclopropylethynyl)phenyl]-1,2-oxazol-5-yl}ethyl]-1H-imidazol-2-yl}ethan-1-ol]	82	0.12 (≈ 0.331 µM)	0.25 (≈ 0.69 µM)	16 (≈ 44.1 µM)	–	–	–	–
C[C@H](O)c1nccn1Cc1cc(-c2ccc(C#C[C@@H]3[C@H]4CNC[C@@H]34)cc2)no1 [Compound 83, (1S)-1-(1-{[3-(4-{[(1R,5S,6s)-3-azabicyclo[3.1.0]hexan-6-yl]ethynyl}phenyl)-1,2-oxazol-5-yl]methyl}-1H-imidazol-2-yl)ethan-1-ol]	136	8 (≈ 21.4 µM)	8 (≈ 21.4 µM)	8 (≈ 21.4 µM)	–	–	–	–
COCCN1C[C@@H]2[C@@H](C#Cc3ccc(-c4cc(Cn5ccnc5[C@H](C)O)on4)cc3)[C@@H]2C1 [Compound 84, (1S)-1-(1-{[3-(4-{[(1R,5S,6s)-3-(2-methoxyethyl)-3-azabicyclo[3.1.0]hexan-6-yl]ethynyl}phenyl)-1,2-oxazol-5-yl]methyl}-1H-imidazol-2-yl)ethan-1-ol]	102	0.5 (≈ 1.16 µM)	0.5 (≈ 1.16 µM)	16 (≈ 37 µM)	–	–	–	–
COCC(O)CN1C[C@@H]2[C@@H](C#Cc3ccc(-c4cc(Cn5ccnc5[C@H](C)O)on4)cc3)[C@@H]2C1 (stereo partly drawn) [Compound 85, 1-[(1R,5S,6s)-6-({4-[5-({2-[(1S)-1-hydroxyethyl]-1H-imidazol-1-yl}methyl)-1,2-oxazol-3-yl]phenyl}ethynyl)-3-azabicyclo[3.1.0]hexan-3-yl]-3-methoxypropan-2-ol]	96.8	0.5 (≈ 1.08 µM)	0.5 (≈ 1.08 µM)	8 (≈ 17.3 µM)	–	–	–	–
